Source: ChEMBL document CHEMBL4507318, “Data for DCP probe BAY-985” (2021)

How the values were obtained:
[1] = system: Serine/threonine-protein kinase B-raf (Homo sapiens), P15056 [V600E]
[2] = molecular target: Dual specificity protein kinase CLK2 (Homo sapiens) (UniProt P49760)
[3] = molecular target: Tyrosine-protein kinase CSK (Homo sapiens) (UniProt P41240)
[4] = molecular target: Discoidin domain-containing receptor 2 (Homo sapiens) (UniProt Q16832)
[5] = molecular target: Ephrin type-A receptor 7 (Homo sapiens) (UniProt Q15375)
[6] = molecular target: Mitogen-activated protein kinase 3 (Homo sapiens) (UniProt P27361)
[7] = molecular target: Mitogen-activated protein kinase 7 (Homo sapiens) (UniProt Q13164)
[8] = molecular target: Fibroblast growth factor receptor 2 (Homo sapiens) (UniProt P21802)
[9] = system: Receptor-type tyrosine-protein kinase FLT3 (Homo sapiens), P36888 [D835H]
[10] = system: Receptor-type tyrosine-protein kinase FLT3 (Homo sapiens), P36888 [UNDEFINED MUTATION]
[11] = molecular target: Receptor-type tyrosine-protein kinase FLT3 (Homo sapiens) (UniProt P36888)
[12] = molecular target: Tyrosine-protein kinase FRK (Homo sapiens) (UniProt P42685)
Chain of Tyrosine-protein kinase FRK (Homo sapiens) (P42685 whole entry): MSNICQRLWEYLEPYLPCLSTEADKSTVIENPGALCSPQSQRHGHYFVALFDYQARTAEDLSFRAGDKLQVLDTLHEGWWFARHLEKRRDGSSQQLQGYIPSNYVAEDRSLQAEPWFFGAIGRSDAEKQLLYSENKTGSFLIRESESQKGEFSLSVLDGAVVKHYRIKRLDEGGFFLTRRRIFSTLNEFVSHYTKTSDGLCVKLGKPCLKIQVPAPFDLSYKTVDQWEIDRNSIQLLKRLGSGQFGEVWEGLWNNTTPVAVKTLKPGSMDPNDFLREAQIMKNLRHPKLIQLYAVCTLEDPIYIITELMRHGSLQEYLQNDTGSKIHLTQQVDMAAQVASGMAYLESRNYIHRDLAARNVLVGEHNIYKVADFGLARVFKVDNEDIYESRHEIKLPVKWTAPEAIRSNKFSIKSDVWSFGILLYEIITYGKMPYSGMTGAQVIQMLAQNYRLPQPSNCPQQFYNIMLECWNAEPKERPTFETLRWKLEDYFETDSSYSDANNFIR

[13] = molecular target: Tyrosine-protein kinase Fyn (Homo sapiens) (UniProt P06241)
Chain of Tyrosine-protein kinase Fyn (Homo sapiens) (P06241 2-537 limits assumed): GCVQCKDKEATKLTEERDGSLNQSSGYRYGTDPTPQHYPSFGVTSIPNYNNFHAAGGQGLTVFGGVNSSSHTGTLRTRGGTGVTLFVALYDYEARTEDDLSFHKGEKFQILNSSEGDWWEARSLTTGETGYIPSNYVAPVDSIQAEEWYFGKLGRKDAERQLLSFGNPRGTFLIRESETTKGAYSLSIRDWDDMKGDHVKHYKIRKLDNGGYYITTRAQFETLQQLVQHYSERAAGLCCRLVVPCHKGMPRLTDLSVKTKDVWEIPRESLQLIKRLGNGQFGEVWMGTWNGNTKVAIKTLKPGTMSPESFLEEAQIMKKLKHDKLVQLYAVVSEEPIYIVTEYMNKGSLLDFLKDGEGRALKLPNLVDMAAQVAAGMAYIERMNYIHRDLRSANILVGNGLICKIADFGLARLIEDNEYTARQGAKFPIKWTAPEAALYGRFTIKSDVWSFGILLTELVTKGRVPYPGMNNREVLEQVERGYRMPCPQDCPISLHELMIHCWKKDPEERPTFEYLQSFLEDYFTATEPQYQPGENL

[14] = molecular target: Homeodomain-interacting protein kinase 4 (Homo sapiens) (UniProt Q8NE63)
[15] = molecular target: Inhibitor of nuclear factor kappa-B kinase subunit epsilon (Homo sapiens) (UniProt Q14164)
[16] = molecular target: Interleukin-1 receptor-associated kinase 3 (Homo sapiens) (UniProt Q9Y616)
[17] = molecular target: Mitogen-activated protein kinase 9 (Homo sapiens) (UniProt P45984)
Chain of Mitogen-activated protein kinase 9 (Homo sapiens) (P45984 whole entry, looked up): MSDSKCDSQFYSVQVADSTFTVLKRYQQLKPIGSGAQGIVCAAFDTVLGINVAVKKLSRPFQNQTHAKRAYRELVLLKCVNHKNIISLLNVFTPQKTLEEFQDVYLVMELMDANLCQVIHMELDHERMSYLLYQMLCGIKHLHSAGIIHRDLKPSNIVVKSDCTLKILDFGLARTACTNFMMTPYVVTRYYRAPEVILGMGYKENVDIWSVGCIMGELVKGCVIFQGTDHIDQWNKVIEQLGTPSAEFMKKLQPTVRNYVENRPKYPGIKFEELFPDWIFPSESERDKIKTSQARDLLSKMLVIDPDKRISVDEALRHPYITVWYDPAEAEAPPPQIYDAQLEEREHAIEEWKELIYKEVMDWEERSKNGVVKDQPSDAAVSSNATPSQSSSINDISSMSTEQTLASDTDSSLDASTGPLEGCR

[18] = system: Mast/stem cell growth factor receptor Kit (Homo sapiens), P10721 [D816V]
Chain of Mast/stem cell growth factor receptor Kit (Homo sapiens), P10721 [D816V] (P10721 whole entry D816V): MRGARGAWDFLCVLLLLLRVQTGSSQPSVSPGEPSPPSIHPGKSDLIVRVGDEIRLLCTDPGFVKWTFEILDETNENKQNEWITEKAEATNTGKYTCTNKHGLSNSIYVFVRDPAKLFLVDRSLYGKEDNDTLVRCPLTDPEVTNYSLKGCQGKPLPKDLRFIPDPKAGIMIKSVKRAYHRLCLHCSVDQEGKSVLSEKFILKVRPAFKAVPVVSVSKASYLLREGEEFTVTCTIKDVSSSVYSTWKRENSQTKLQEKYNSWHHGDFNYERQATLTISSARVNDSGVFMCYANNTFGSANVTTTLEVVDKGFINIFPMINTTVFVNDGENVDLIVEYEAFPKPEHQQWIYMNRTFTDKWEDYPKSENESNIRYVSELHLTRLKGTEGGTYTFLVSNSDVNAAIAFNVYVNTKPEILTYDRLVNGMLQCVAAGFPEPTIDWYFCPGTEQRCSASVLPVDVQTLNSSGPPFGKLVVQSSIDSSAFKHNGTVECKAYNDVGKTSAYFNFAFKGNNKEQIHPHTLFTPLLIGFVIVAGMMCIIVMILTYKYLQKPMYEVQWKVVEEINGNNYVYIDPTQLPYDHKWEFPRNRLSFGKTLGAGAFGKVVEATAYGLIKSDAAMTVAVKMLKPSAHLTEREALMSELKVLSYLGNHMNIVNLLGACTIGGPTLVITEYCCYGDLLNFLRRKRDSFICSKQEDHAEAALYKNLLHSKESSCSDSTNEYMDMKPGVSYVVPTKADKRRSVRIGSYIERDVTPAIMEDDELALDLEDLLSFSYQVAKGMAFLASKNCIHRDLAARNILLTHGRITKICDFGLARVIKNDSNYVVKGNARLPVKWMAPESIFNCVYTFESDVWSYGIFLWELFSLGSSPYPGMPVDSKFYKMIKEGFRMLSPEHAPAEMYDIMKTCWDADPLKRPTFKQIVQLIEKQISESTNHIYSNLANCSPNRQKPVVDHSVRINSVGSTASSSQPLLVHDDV

[19] = system: Mast/stem cell growth factor receptor Kit (Homo sapiens), P10721 [V559D]
Chain of Mast/stem cell growth factor receptor Kit (Homo sapiens), P10721 [V559D] (P10721 whole entry V559D): as the sequence (P10721 whole entry D816V) above, with V559D, V816D counted along it

[20] = system: Mast/stem cell growth factor receptor Kit (Homo sapiens), P10721 [V559D,V654A]
Chain of Mast/stem cell growth factor receptor Kit (Homo sapiens), P10721 [V559D,V654A] (P10721 whole entry V559D/V654A): as the sequence (P10721 whole entry D816V) above, with V559D, V654A, V816D counted along it

[21] = molecular target: Leucine-rich repeat serine/threonine-protein kinase 2 (Homo sapiens) (UniProt Q5S007)
[22] = molecular target: Mitogen-activated protein kinase kinase kinase 15 (Homo sapiens) (UniProt Q6ZN16)
Chain of Mitogen-activated protein kinase kinase kinase 15 (Homo sapiens) (Q6ZN16 whole entry): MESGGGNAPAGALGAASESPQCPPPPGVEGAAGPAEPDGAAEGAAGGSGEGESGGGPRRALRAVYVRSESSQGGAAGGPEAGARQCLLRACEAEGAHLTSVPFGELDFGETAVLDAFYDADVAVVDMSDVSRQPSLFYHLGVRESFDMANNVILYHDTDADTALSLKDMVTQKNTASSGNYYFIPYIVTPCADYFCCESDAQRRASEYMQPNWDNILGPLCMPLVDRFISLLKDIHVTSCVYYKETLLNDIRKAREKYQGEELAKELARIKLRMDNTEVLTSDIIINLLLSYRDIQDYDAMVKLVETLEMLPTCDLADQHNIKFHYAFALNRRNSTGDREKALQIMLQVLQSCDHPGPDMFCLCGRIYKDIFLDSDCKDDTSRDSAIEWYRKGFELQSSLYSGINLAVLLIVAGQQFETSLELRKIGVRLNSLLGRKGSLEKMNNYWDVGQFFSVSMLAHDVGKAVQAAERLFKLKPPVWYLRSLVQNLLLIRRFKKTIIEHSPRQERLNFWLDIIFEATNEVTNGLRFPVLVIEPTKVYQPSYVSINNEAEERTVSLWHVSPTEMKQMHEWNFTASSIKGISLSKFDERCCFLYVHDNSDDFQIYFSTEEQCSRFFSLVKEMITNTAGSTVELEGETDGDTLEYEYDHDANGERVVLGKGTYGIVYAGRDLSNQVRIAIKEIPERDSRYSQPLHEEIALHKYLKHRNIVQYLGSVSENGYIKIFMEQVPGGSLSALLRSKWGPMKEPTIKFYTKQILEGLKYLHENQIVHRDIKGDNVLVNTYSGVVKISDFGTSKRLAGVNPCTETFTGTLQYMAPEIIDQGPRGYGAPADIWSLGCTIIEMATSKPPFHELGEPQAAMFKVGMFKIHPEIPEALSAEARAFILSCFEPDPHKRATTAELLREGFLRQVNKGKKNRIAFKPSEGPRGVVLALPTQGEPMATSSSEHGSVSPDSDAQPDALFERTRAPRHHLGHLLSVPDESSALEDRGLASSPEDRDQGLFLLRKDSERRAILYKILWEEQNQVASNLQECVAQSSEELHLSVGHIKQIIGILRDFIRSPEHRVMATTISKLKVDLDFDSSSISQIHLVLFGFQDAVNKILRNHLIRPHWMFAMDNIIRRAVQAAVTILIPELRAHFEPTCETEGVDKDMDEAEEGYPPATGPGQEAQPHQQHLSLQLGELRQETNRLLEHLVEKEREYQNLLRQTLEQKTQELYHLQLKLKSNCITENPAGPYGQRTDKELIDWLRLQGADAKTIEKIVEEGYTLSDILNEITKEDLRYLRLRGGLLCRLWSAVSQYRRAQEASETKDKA

[23] = molecular target: Serine/threonine-protein kinase mTOR (Homo sapiens) (UniProt P42345)
[24] = molecular target: Serine/threonine-protein kinase Nek6 (Homo sapiens) (UniProt Q9HC98)
[25] = molecular target: Serine/threonine-protein kinase NIM1 (Homo sapiens) (UniProt Q8IY84)
[26] = molecular target: Serine/threonine-protein kinase NLK (Homo sapiens) (UniProt Q9UBE8)
[27] = molecular target: Serine/threonine-protein kinase PAK 2 (Homo sapiens) (UniProt Q13177)
[28] = molecular target: Platelet-derived growth factor receptor alpha (Homo sapiens) (UniProt P16234)
Chain of Platelet-derived growth factor receptor alpha (Homo sapiens) (P16234 whole entry): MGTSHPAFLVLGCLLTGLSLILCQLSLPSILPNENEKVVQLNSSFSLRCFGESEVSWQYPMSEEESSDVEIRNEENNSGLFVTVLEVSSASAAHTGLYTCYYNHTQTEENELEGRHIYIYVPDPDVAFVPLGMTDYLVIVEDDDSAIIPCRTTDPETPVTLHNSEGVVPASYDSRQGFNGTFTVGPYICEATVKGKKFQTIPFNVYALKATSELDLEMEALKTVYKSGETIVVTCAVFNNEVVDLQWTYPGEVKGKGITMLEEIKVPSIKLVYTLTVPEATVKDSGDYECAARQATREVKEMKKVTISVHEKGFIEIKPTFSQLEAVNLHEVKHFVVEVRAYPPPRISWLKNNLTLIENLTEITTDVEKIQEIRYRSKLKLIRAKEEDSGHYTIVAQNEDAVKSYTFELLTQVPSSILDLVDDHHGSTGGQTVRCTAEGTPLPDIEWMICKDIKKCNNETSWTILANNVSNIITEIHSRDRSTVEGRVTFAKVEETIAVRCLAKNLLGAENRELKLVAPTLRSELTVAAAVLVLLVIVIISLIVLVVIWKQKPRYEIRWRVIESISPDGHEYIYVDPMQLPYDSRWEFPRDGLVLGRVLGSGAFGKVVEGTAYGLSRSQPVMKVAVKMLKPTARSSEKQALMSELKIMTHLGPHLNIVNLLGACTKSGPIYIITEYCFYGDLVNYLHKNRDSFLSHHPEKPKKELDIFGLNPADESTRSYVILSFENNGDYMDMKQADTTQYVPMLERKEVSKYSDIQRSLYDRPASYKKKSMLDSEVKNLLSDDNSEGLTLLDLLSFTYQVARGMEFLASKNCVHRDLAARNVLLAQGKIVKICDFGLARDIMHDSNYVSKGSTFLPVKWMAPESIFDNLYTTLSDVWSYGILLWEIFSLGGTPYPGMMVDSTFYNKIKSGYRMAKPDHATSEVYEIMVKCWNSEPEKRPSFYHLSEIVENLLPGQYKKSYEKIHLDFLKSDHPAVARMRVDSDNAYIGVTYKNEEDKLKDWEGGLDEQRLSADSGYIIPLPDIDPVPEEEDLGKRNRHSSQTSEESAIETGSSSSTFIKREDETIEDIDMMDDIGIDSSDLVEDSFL

[29] = molecular target: Calcium-dependent protein kinase 1 (Plasmodium falciparum) (UniProt P62344)
[30] = system: Phosphatidylinositol 4,5-bisphosphate 3-kinase catalytic subunit alpha isoform (Homo sapiens), P42336 [E545A]
[31] = molecular target: Serine/threonine-protein kinase PknB (Mycobacterium tuberculosis) (UniProt P9WI81)
[32] = molecular target: Protein kinase C epsilon type (Homo sapiens) (UniProt Q02156)
[33] = molecular target: Proto-oncogene tyrosine-protein kinase receptor Ret (Homo sapiens) (UniProt P07949)
[34] = molecular target: Serine/threonine-protein kinase RIO2 (Homo sapiens) (UniProt Q9BVS4)
[35] = molecular target: Ribosomal protein S6 kinase alpha-2 (Homo sapiens) (UniProt Q15349)
[36] = molecular target: Serine/threonine-protein kinase SBK1 (Homo sapiens) (UniProt Q52WX2)
[37] = molecular target: Serine/threonine-protein kinase Sgk1 (Homo sapiens) (UniProt O00141)
[38] = molecular target: Serine/threonine-protein kinase Sgk2 (Homo sapiens) (UniProt Q9HBY8)
[39] = molecular target: Serine/threonine-protein kinase 16 (Homo sapiens) (UniProt O75716)
[40] = molecular target: Serine/threonine-protein kinase 35 (Homo sapiens) (UniProt Q8TDR2)
[41] = molecular target: Serine/threonine-protein kinase WNK3 (Homo sapiens) (UniProt Q9BYP7)
[42] = molecular target: Tyrosine-protein kinase ZAP-70 (Homo sapiens) (UniProt P43403)
[43] = molecular target: Mu-type opioid receptor (Homo sapiens) (UniProt P35372); conditions: Compound concentration 10.0 uM
[44] = molecular target: Alpha-1B adrenergic receptor (Homo sapiens) (UniProt P35368); conditions: Compound concentration 10.0 uM
[45] = molecular target: Alpha-2B adrenergic receptor (Homo sapiens) (UniProt P18089); conditions: Compound concentration 10.0 uM
[46] = Compound concentration 100.0 nM
[47] = Compound concentration 1000.0 nM

C[C@H](c1ccnc(Nc2nc3ccc(-c4cc(N(C)C)ncn4)cc3[nH]2)c1)N1CCN(C(=O)CC(F)(F)F)CC1 [BAY-985]
residual activity [1, 46]: 100%
residual activity [2, 46]: 65%
residual activity [3, 46]: 100%
residual activity [4, 46]: 100%
residual activity [5, 46]: 100%
residual activity [6, 46]: 89%
residual activity [7, 46]: 100%
residual activity [8, 46]: 100%
residual activity [9, 46]: 71%
residual activity [10, 46]: 100%
residual activity [11, 46]: 95%
residual activity [12, 46]: 92%
residual activity [13, 46]: 79%
residual activity [14, 46]: 100%
residual activity [15, 46]: 9.9%
residual activity [16, 46]: 76%
residual activity [17, 46]: 89%
residual activity [18, 46]: 96%
residual activity [19, 46]: 99%
residual activity [20, 46]: 100%
residual activity [21, 46]: 94%
residual activity [22, 46]: 96%
residual activity [23, 46]: 75%
residual activity [24, 46]: 83%
residual activity [25, 46]: 100%
residual activity [26, 46]: 88%
residual activity [27, 46]: 68%
residual activity [28, 46]: 99%
residual activity [29, 46]: 100%
residual activity [30, 46]: 100%
residual activity [31, 46]: 91%
residual activity [32, 46]: 96%
residual activity [33, 46]: 100%
residual activity [34, 46]: 100%
residual activity [35, 46]: 98%
residual activity [36, 46]: 85%
residual activity [37, 46]: 94%
residual activity [38, 46]: 100%
residual activity [39, 46]: 86%
residual activity [40, 46]: 100%
residual activity [41, 46]: 100%
residual activity [42, 46]: 100%
inhibition [43]: 26%
inhibition [44]: 2.95%
inhibition [45]: 24.7%

CN(C)c1ncnc(-c2ccc3nc(Nc4cc(CN5CCN(C(=O)CC(F)(F)F)CC5)ccn4)[nH]c3c2)c1Cl [BAY-440]
residual activity [1, 47]: 84%
residual activity [2, 47]: 90%
residual activity [3, 47]: 84%
residual activity [4, 47]: 71%
residual activity [5, 47]: 100%
residual activity [6, 47]: 100%
residual activity [7, 47]: 91%
residual activity [8, 47]: 100%
residual activity [9, 47]: 42%
residual activity [10, 47]: 86%
residual activity [11, 47]: 71%
residual activity [12, 47]: 85%
residual activity [13, 47]: 68%
residual activity [14, 47]: 100%
residual activity [15, 47]: 13%
residual activity [16, 47]: 97%
residual activity [17, 47]: 47%
residual activity [18, 47]: 97%
residual activity [19, 47]: 75%
residual activity [20, 47]: 100%
residual activity [21, 47]: 84%
residual activity [22, 47]: 75%
residual activity [23, 47]: 100%
residual activity [24, 47]: 98%
residual activity [25, 47]: 61%
residual activity [26, 47]: 88%
residual activity [27, 47]: 100%
residual activity [28, 47]: 61%
residual activity [29, 47]: 100%
residual activity [30, 47]: 100%
residual activity [31, 47]: 100%
residual activity [32, 47]: 100%
residual activity [33, 47]: 77%
residual activity [34, 47]: 81%
residual activity [35, 47]: 100%
residual activity [36, 47]: 71%
residual activity [37, 47]: 37%
residual activity [38, 47]: 43%
residual activity [39, 47]: 100%
residual activity [40, 47]: 83%
residual activity [41, 47]: 85%
residual activity [42, 47]: 100%
inhibition [43]: 14.1%
inhibition [44]: 4.51%
inhibition [45]: -2.22%
